Source: publication PMC8550792, “Evolution of kinase polypharmacology across HSP90 drug discovery” (Cell Chemical Biology, 2021)

Experiments:
Experiment in all cases: biochemical
Format in all cases: biochemical
382 unique human kinases [1] = target: T1, 382 unique human kinases (Homo sapiens, UniProt P25098); conditions: GRK2, compound at 10 uM, duplicate values; for remaining activity at 10 µM: read-out: % Enzyme Activity (relative to DMSO controls)
T1 construct: purchased Reaction Biology (HotSpot contract assay)
T1 sequence (P25098 1-689): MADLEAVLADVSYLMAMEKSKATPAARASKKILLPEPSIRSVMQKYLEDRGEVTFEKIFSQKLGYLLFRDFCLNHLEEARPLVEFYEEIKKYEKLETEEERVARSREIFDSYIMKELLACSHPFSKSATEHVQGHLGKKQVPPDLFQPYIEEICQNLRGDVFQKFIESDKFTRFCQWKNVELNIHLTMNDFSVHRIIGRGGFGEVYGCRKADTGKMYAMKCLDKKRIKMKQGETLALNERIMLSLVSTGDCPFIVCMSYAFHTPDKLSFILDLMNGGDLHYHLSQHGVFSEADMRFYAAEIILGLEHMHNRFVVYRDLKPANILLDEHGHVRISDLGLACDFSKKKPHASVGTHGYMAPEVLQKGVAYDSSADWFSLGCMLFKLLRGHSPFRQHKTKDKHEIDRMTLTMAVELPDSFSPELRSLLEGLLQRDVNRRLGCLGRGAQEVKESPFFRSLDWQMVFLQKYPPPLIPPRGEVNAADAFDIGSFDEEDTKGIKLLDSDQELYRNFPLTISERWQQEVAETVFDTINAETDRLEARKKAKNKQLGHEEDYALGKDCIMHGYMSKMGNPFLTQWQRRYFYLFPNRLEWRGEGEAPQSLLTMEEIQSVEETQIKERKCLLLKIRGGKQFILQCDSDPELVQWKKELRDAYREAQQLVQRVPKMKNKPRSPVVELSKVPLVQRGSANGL

382 unique human kinases [2] = target: T2, 382 unique human kinases (Homo sapiens, UniProt Q14164); conditions: kinase IKKe/IKBKE, compound 10 uM; for remaining activity at 10 µM: read-out: % Enzyme Activity (relative to DMSO controls)
T2 construct: purchased Reaction Biology (HotSpot contract assay)
T2 sequence (Q14164 1-716): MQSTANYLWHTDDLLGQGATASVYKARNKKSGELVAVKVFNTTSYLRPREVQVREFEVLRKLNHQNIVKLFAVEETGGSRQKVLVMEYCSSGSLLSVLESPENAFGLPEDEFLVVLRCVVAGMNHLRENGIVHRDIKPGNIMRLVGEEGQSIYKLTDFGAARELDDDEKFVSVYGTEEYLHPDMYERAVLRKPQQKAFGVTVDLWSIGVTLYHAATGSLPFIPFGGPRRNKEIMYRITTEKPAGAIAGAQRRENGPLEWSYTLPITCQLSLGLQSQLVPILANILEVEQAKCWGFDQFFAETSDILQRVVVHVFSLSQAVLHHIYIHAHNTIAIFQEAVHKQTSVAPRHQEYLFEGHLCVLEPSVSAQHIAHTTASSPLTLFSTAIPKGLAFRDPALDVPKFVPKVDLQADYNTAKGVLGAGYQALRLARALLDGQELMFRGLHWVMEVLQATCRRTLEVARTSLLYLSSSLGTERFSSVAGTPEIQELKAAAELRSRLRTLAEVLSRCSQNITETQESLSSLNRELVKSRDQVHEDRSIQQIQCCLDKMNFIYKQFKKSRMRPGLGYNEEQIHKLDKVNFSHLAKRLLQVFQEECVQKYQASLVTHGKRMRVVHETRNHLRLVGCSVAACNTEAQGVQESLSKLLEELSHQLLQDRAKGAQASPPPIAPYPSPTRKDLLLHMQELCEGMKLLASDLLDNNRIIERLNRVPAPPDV

382 unique human kinases [3] = target: T3, 382 unique human kinases (Homo sapiens, UniProt Q15375); conditions: kinase EPHA7, compound 10 uM; for remaining activity at 10 µM: read-out: % Enzyme Activity (relative to DMSO controls)
T3 construct: purchased Reaction Biology (HotSpot contract assay)

382 unique human kinases [4] = target: T4, 382 unique human kinases (Homo sapiens, UniProt Q15831); conditions: LKB1, compound at 10 uM, duplicate values; for remaining activity at 10 µM: read-out: % Enzyme Activity (relative to DMSO controls)
T4 construct: purchased Reaction Biology (HotSpot contract assay)
T4 sequence (Q15831 1-433): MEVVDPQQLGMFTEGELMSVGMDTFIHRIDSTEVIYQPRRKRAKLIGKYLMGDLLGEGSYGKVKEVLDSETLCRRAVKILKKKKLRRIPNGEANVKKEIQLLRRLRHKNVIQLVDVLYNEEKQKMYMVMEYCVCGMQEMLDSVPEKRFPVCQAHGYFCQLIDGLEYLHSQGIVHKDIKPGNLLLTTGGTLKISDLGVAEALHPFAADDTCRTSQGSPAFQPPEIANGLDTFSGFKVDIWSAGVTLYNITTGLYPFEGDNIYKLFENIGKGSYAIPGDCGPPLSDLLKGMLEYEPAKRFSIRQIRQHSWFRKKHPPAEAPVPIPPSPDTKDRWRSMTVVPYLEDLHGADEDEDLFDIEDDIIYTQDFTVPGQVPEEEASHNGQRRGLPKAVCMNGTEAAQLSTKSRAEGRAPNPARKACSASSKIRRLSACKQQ

382 unique human kinases [5] = target: T5, 382 unique human kinases (Homo sapiens, UniProt Q9BUB5); conditions: kinase MNK1, compound 10 uM; for remaining activity at 10 µM: read-out: % Enzyme Activity (relative to DMSO controls)
T5 construct: purchased Reaction Biology (HotSpot contract assay)
T5 sequence (Q9BUB5 whole entry): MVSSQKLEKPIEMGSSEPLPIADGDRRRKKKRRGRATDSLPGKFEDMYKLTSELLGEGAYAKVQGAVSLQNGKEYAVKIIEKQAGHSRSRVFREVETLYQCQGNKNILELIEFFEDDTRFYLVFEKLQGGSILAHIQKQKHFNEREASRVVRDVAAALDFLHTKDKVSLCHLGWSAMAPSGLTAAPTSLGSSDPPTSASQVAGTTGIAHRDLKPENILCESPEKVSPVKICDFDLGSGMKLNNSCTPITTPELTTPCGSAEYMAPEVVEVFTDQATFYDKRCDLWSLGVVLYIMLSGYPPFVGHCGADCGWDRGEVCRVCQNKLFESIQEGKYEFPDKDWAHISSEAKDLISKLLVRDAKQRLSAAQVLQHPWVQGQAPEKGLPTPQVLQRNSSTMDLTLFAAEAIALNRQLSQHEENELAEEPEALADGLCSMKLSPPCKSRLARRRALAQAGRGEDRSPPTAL

382 unique human kinases [6] = target: T6, 382 unique human kinases (Homo sapiens, UniProt Q9Y3S1); conditions: WNK2, 10 uM; for remaining activity at 10 µM: read-out: % Enzyme Activity (relative to DMSO controls)
T6 construct: purchased Reaction Biology (HotSpot contract assay)
T6 sequence (Q9Y3S1 whole entry): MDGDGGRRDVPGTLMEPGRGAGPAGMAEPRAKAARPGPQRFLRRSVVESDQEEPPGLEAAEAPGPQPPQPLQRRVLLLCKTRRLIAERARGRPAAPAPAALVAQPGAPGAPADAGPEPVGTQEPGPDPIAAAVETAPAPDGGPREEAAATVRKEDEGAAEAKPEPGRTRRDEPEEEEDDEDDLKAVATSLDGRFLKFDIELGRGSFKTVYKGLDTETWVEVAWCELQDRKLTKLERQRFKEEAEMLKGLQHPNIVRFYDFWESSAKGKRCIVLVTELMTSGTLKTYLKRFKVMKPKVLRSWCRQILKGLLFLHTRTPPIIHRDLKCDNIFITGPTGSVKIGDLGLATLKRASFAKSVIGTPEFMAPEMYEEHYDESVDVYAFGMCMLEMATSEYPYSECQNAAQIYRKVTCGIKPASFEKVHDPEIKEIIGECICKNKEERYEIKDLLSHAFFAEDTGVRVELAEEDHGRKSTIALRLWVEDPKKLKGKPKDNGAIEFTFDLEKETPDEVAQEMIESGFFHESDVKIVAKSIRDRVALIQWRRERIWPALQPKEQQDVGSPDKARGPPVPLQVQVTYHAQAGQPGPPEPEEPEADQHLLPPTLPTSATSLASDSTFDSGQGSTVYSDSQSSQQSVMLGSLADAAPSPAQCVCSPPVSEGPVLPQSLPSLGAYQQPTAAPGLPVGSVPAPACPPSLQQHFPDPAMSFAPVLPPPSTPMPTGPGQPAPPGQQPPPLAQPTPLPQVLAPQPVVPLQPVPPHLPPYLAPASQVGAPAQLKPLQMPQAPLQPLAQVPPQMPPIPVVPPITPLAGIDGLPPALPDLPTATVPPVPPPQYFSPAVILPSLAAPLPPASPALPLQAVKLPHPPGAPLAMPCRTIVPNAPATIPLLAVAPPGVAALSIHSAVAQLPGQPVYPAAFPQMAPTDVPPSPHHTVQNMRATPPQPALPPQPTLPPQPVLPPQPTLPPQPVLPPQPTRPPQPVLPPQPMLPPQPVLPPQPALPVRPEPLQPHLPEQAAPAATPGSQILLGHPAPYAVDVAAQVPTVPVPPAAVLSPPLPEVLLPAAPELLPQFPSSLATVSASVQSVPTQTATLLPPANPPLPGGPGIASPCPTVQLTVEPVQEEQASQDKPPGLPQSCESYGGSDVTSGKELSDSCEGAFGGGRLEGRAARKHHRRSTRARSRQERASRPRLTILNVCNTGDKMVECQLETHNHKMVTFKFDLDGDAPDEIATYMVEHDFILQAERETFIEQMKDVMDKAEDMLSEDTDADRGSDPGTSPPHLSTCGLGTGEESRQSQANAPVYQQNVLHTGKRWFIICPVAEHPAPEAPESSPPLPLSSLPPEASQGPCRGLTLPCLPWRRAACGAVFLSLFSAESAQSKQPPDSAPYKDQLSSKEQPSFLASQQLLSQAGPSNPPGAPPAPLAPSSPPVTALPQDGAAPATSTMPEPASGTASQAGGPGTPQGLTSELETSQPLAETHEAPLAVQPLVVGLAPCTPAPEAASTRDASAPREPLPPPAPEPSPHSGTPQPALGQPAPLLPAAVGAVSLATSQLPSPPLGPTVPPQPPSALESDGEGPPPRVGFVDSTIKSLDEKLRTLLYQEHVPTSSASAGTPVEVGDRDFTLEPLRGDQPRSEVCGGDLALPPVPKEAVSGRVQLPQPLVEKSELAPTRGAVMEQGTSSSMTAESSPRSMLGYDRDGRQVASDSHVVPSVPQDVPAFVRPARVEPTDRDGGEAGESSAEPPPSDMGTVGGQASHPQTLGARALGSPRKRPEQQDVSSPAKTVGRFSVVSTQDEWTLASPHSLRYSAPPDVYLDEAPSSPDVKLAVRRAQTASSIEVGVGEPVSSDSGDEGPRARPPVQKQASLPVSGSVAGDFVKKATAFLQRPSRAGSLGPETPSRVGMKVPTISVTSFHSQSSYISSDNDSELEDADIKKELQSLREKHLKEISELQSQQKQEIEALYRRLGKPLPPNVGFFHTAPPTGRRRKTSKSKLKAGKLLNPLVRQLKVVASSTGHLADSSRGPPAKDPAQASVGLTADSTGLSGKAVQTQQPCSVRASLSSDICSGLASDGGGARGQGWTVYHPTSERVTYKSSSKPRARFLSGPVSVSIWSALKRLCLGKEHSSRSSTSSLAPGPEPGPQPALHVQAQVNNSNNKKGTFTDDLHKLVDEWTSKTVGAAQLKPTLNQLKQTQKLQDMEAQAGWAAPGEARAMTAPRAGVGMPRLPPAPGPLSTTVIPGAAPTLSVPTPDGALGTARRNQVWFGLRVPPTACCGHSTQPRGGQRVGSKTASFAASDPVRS

382 unique human kinases [7] = target: T7, 382 unique human kinases (Homo sapiens, UniProt P00519, E255K); conditions: ABL1 (E255K), [ATP] 5 µM, compound 10 uM; for remaining activity at 10 µM: read-out: % Enzyme Activity (relative to DMSO controls)
T7 construct: purchased Reaction Biology (HotSpot contract assay)
T7 sequence (P00519 whole entry E255K): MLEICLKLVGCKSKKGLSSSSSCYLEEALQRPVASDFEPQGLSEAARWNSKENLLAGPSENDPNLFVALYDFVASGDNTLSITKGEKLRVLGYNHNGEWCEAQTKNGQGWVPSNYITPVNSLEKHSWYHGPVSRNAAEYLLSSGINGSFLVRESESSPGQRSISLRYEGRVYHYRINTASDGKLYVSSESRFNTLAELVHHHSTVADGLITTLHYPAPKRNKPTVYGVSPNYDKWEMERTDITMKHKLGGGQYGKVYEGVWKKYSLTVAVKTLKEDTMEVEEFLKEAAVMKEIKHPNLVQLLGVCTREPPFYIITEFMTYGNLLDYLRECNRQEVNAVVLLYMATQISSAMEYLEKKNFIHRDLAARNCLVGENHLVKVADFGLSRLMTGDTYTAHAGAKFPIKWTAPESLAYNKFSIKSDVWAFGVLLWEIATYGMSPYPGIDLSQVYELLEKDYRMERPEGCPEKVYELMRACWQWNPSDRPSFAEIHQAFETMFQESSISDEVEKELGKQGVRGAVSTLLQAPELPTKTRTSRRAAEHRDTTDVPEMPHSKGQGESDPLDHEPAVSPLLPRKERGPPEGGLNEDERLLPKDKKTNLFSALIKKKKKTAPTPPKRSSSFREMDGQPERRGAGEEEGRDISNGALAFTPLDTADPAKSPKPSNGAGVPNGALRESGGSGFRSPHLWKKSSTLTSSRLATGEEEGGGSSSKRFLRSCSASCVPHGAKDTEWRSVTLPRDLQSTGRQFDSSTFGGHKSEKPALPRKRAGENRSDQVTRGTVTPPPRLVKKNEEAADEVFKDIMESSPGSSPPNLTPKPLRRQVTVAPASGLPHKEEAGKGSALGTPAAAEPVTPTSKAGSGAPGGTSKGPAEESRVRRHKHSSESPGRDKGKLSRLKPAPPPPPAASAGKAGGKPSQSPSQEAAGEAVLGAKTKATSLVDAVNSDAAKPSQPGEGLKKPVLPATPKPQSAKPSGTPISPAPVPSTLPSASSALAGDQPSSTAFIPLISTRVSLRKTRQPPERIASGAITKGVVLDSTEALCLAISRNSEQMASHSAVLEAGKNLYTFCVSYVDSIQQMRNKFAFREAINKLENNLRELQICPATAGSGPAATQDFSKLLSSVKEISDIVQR

382 unique human kinases [8] = target: T8, 382 unique human kinases (Homo sapiens, UniProt P29597); conditions: TYK2, [ATP] 15 µM, compound 10 uM; for remaining activity at 10 µM: read-out: % Enzyme Activity (relative to DMSO controls)
T8 construct: purchased Reaction Biology (HotSpot contract assay)
T8 sequence (P29597 whole entry): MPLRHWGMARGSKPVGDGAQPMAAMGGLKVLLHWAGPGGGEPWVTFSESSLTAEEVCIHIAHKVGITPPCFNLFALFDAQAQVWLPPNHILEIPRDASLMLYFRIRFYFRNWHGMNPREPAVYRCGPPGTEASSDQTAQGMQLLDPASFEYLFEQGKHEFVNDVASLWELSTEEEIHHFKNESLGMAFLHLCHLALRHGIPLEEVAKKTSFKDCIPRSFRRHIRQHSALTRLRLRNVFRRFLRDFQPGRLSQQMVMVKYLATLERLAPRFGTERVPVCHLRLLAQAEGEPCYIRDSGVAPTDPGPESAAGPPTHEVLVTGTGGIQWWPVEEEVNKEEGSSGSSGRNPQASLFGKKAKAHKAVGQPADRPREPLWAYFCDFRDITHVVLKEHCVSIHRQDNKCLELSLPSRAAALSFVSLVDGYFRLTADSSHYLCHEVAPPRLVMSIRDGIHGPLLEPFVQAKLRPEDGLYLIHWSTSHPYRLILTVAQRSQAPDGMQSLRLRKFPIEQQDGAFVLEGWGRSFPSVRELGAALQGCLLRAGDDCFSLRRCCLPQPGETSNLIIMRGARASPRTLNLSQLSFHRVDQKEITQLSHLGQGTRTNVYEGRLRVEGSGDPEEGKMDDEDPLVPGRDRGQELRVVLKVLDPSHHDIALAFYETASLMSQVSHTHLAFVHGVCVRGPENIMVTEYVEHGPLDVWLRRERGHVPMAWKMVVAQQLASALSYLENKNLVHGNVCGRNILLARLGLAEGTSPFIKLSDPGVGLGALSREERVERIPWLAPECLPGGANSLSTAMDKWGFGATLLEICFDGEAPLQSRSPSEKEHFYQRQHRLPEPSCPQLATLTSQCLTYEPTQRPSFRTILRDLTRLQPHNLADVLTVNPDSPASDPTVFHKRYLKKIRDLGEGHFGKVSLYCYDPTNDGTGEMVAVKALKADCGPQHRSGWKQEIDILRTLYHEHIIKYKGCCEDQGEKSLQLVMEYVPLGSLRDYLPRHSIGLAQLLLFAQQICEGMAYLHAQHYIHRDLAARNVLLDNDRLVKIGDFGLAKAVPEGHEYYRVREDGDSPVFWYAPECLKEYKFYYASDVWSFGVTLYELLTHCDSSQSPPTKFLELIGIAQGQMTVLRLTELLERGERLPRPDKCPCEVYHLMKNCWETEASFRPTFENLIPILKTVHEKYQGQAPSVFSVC

382 unique human kinases [9] = target: T9, 382 unique human kinases (Homo sapiens, UniProt Q14012); conditions: CAMK1a, 10 uM; for remaining activity at 10 µM: read-out: % Enzyme Activity (relative to DMSO controls)
T9 construct: purchased Reaction Biology (HotSpot contract assay)

382 unique human kinases [10] = target: T10, 382 unique human kinases (Homo sapiens, UniProt Q96KB5); conditions: PBK/TOPK, 10 uM; for remaining activity at 10 µM: read-out: % Enzyme Activity (relative to DMSO controls)
T10 construct: purchased Reaction Biology (HotSpot contract assay)
T10 sequence (Q96KB5 1-322): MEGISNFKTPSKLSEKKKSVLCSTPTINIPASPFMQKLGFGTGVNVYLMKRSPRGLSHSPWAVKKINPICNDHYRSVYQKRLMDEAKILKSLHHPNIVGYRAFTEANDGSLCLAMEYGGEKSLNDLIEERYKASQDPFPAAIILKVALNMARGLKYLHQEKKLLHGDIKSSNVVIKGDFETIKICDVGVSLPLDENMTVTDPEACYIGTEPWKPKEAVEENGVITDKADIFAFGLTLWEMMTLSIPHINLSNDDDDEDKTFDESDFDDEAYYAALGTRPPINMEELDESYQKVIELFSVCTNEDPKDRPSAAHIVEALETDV

Row | Structure (SMILES) | remaining activity at 10 µM (382 unique human kinases [1]) [%] | remaining activity at 10 µM (382 unique human kinases [2]) [%] | remaining activity at 10 µM (382 unique human kinases [3]) [%] | remaining activity at 10 µM (382 unique human kinases [4]) [%] | remaining activity at 10 µM (382 unique human kinases [5]) [%] | remaining activity at 10 µM (382 unique human kinases [6]) [%] | remaining activity at 10 µM (382 unique human kinases [7]) [%] | remaining activity at 10 µM (382 unique human kinases [8]) [%] | remaining activity at 10 µM (382 unique human kinases [9]) [%] | remaining activity at 10 µM (382 unique human kinases [10]) [%] | % Enzyme Activity (relative to DMSO controls) (382 unique human kinases [1]) [%] | % Enzyme Activity (relative to DMSO controls) (382 unique human kinases [2]) [%] | % Enzyme Activity (relative to DMSO controls) (382 unique human kinases [3]) [%] | % Enzyme Activity (relative to DMSO controls) (382 unique human kinases [4]) [%] | % Enzyme Activity (relative to DMSO controls) (382 unique human kinases [5]) [%] | % Enzyme Activity (relative to DMSO controls) (382 unique human kinases [6]) [%] | % Enzyme Activity (relative to DMSO controls) (382 unique human kinases [7]) [%] | % Enzyme Activity (relative to DMSO controls) (382 unique human kinases [8]) [%] | % Enzyme Activity (relative to DMSO controls) (382 unique human kinases [9]) [%] | % Enzyme Activity (relative to DMSO controls) (382 unique human kinases [10]) [%]
1 | CC(C)c1cc(-c2n[nH]c(=O)n2-c2ccc3c(ccn3C)c2)c(O)cc1O [Ganetespib (STA9090)] | 104 | 95.7 | 86.7 | 110 | 79.3 | 59.5 |  |  |  |  |  |  |  |  |  |  |  |  |  | 
2 | CC(C)c1cc(-c2n[nH]c(=O)n2-c2ccc3c(ccn3C)c2)c(O)cc1O [Ganetespib] |  |  |  |  |  |  | 4.77 | 62.6 | 91.4 | 93.8 |  |  |  |  |  |  |  |  |  | 
3 | CCNC(=O)c1noc(-c2cc(C(C)C)c(O)cc2O)c1-c1ccc(CN2CCOCC2)cc1 [Luminespib (AUY-922)] | 106 | 109 | 97.9 | 106 | 106 | 107 |  |  |  |  | 104.97 | 104.37 | 95.91 | 103.13 | 105.09 | 106.80 |  |  |  | 
4 | CCNC(=O)c1noc(-c2cc(C(C)C)c(O)cc2O)c1-c1ccc(CN2CCOCC2)cc1 [Luminespib] |  |  |  |  |  |  | 14.7 | 102 | 109 | 98.3 |  |  |  |  |  |  | 14.20 | 101.11 | 103.58 | 96.61
